# Test results: patent US11384079B2, “6-5 fused rings as C5a inhibitors” (CHEMOCENTRYX, INC., priority 2017, dated 2022)
# Target: T1, C5aR (Homo sapiens, UniProt P21730)
# T1 construct: U937 cells are a monocytic cell line which express C5aR; host or cells: U937 cells (cAMP treated) or isolated neutrophils
# T1 sequence (P21730 1-350): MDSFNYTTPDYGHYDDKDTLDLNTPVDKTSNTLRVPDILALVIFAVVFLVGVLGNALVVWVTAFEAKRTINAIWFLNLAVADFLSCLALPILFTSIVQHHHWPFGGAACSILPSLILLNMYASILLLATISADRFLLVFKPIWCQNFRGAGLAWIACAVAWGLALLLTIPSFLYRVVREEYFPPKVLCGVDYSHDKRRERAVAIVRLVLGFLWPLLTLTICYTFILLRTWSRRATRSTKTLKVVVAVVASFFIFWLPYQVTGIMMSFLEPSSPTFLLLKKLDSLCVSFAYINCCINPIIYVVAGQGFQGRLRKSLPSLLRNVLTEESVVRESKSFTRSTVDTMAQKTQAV
# Experiment: chemotaxis assay (C5aR mediated migration)
# Format: cell-based
# Conditions: migration of U937 or neutrophil cells toward C5a (0.03 nM), 1.5 hours at 37° C., read-out: Mig IC50
# Experimental: U937 cells are a monocytic cell line which express C5aR, and are available from ATCC (VA). […] Cells were grown under 5% CO2/95% air, 100% humidity at 37° C. and subcultured twice weekly at 1:6 (cells were cultured at a density range of 1×10^5 to 2×10^6 cells/mL) and harvested at 1×10^6 cells/mL. Prior to assay, cells are treated overnight with 0.5 mM of cyclic AMP (Sigma, Ohio) and washed once prior to use. cAMP treated U937 cells can be used in C5aR ligand binding and functional assays.
# Optionally, human or murine neutrophils can be used to assay for compound activity. Neutrophils may be isolated from fresh human blood using density separation and centrifugation. Briefly, whole blood is incubated with equal parts 3% dextran and allowed to separate for 45 minutes. After separation, the top layer is layered on top of 15 mls of Ficoll (15 mls of Ficoll for every 30 mls of blood suspension) and centrifuged for 30 minutes at 400×g with no brake. The pellet at the bottom of the tube is then isolated and resuspended into PharmLyse RBC Lysis Buffer (BD Biosciences, San Jose, Calif.) after which the sample is again centrifuged for 10 minutes at 400×g with brake. The remaining cell pellet is resuspended as appropriate and consists of isolated neutrophils.
# Optionally, compounds may be further assayed for their ability to inhibit chemotaxis in cells. Chemotaxis assays are performed using 5 μm pore polycarbonate, polyvinylpyrrolidone-coated filters in 96-well chemotaxis chambers (Neuroprobe; Gaithersburg, Md.) using chemotaxis buffer (Hank's balanced salt solution (HBSS) and 1% FBS). C5aR ligands (i.e., C5a, R&D Systems; Minneapolis, Minn.) are use to evaluate compound mediated inhibition of C5aR mediated migration. Other chemokines (i.e., SDF-1α; R&D Systems; Minneapolis, Minn.) are used as specificity controls. […] The chambers are incubated 1.5 hours at 37° C., and the number of cells in the lower chamber quantified either by direct cell counts in five high powered fields per well or by the CyQuant assay (Molecular Probes), a fluorescent dye method that measures nucleic acid content and microscopic observation.
row,IC50 [nM],SMILES
1,5 to 50,Cc1cccc(C)c1-n1nc2c(c1-c1ccc(C)c3[nH]ccc13)CN(c1ncc(C(F)(F)F)cc1F)CC2 [Example 1.108]
2,5 to 50,CCc1cccc(CC)c1-n1nc2c(c1-c1ccc(Cl)c3[nH]ccc13)CN(c1nccc(C)n1)CC2 [Example 1.110]
3,< 5,CCc1cccc(CC)c1-n1nc2c(c1-c1ccc(Cl)c3[nH]ccc13)CN(c1nccc(OC)n1)CC2 [Example 1.113]
4,< 5,CCc1cccc(CC)c1-n1nc2c(c1-c1cc(F)c(C)c3[nH]ccc13)CN(c1ncc(C(C)C)cn1)CC2 [Example 1.115]
5,5 to 50,CCc1cccc(CC)c1-n1nc2c(c1-c1cc(F)c(F)c3[nH]ccc13)CN(c1ncc(C(F)(F)F)cn1)CC2 [Example 1.118]
6,5 to 50,CCc1cccc(CC)c1-n1nc2c(c1-c1ccc(Cl)c3[nH]ncc13)CN(c1ncc(C(F)(F)F)cc1F)CC2 [Example 1.119]
7,5 to 50,Cc1cccc(C)c1-n1nc2c(c1-c1c(F)cc(Cl)c3[nH]ccc13)CN(c1ncc(C(F)(F)F)cn1)CC2 [Example 1.122]
8,5 to 50,Cc1cccc(C)c1-n1nc2c(c1-c1ccc(C)c3[nH]ccc13)CN(c1ccc(C(F)(F)F)cn1)CC2 [Example 1.130]
9,5 to 50,Cc1cccc(C)c1-n1nc2c(c1-c1ccc(C)c3[nH]ccc13)CN(c1ncc(C(C)C)cn1)CC2 [Example 1.131]
10,< 5,CCc1cccc(CC)c1-n1nc2c(c1-c1ccc(C)c3[nH]ccc13)CN(c1ncc(C(C)C)cc1F)CC2 [Example 1.136]
11,< 5,CCc1cccc(CC)c1-n1nc2c(c1-c1c(F)cc(Cl)c3[nH]ccc13)CN(c1ncc(C(F)(F)F)cn1)CC2 [Example 1.137]
12,< 5,CCc1cccc(CC)c1-n1nc2c(c1-c1c(F)cc(C)c3[nH]ccc13)CN(c1ncc(C(F)(F)F)cn1)CC2 [Example 1.141]
13,< 5,CCc1cccc(CC)c1-n1nc2c(c1-c1c(F)cc(C)c3[nH]ccc13)CN(c1ncc(C(C)C)cc1F)CC2 [Example 1.145]
14,< 5,CCc1cccc(CC)c1-n1nc2c(c1-c1ccc(Cl)c3[nH]cc(C)c13)CN(c1ncc(C(F)(F)F)cc1F)CC2 [Example 1.146]
15,< 5,CCc1cccc(CC)c1-n1nc2c(c1-c1ccc(C)c3[nH]ccc13)CN(c1ncc(C(C)C)cn1)CC2 [Example 1.147]
16,< 5,Cc1cccc(C)c1-n1nc2c(c1-c1ccc(Cl)c3[nH]ccc13)CN(c1ncc(C(C)C)cn1)CC2 [Example 1.151]
17,< 5,CCc1cccc(CC)c1-n1nc2c(c1-c1ccc(Cl)c3[nH]ccc13)CN(c1ncc(C(C)C)cc1F)CC2 [Example 1.152]

# The remaining lines, values behind:
row,SMILES,IC50 [nM]
1,Cc1cccc(C)c1-n1nc2c(c1-c1c(F)cc(Cl)c3[nH]ccc13)CN(c1ncc(C(C)C)cc1F)CC2 [Example 1.105],5 to 50
2,Cc1cccc(C)c1-n1nc2c(c1-c1c(F)cc(Cl)c3[nH]ccc13)CN(c1ccc(C(C)C)cn1)CC2 [Example 1.106],< 5
3,Cc1cccc(C)c1-n1nc2c(c1-c1ccc(C)c3[nH]ccc13)CN(c1ncc(C(F)(F)F)cn1)CC2 [Example 1.107],5 to 50
4,CCc1cccc(CC)c1-n1nc2c(c1-c1c(F)cc(Cl)c3[nH]ccc13)CN(c1ccc(C(C)C)cn1)CC2 [Example 1.109],< 5
5,COc1cnc(N2CCc3nn(-c4c(C)cccc4C)c(-c4c(F)cc(Cl)c5[nH]ccc45)c3C2)nc1 [Example 1.111],5 to 50
6,COc1cnc(N2CCc3nn(-c4c(C)cccc4C)c(-c4ccc(Cl)c5[nH]ccc45)c3C2)nc1 [Example 1.112],5 to 50
7,COc1cnc(N2CCc3nn(-c4c(C)cccc4C)c(-c4ccc(C)c5[nH]ccc45)c3C2)nc1 [Example 1.114],5 to 50
8,CCc1cccc(CC)c1-n1nc2c(c1-c1cc(F)c(F)c3[nH]ccc13)CN(c1ccc(C(F)(F)F)cn1)CC2 [Example 1.116],5 to 50
9,CCc1cccc(CC)c1-n1nc2c(c1-c1cc(F)c(F)c3[nH]ccc13)CN(c1ncc(C(C)C)cn1)CC2 [Example 1.117],5 to 50
10,CCc1cccc(CC)c1-n1nc2c(c1-c1cc(F)c(F)c3[nH]ccc13)CN(c1ncc(C(F)(F)F)cc1F)CC2 [Example 1.120],5 to 50
11,CCc1cccc(CC)c1-n1nc2c(c1-c1ccc(Cl)c3[nH]ccc13)CN(c1ncc(Cl)c(OC)n1)CC2 [Example 1.121],5 to 50
12,CCc1cccc(CC)c1-n1nc2c(c1-c1cc(F)c(C)c3[nH]ccc13)CN(c1ncc(C(F)(F)F)cc1F)CC2 [Example 1.123],< 5
13,Cc1cccc(C)c1-n1nc2c(c1-c1c(F)cc(Cl)c3[nH]ccc13)CN(c1ncc(C(F)(F)F)cc1F)CC2 [Example 1.124],5 to 50
14,CCc1cccc(CC)c1-n1nc2c(c1-c1c(F)cc(Cl)c3[nH]ccc13)CN(c1ncc(C(C)C)cc1F)CC2 [Example 1.125],< 5
15,CCc1cccc(CC)c1-n1nc2c(c1-c1ccc(Cl)c3[nH]ccc13)CN(c1ncc(OC)cn1)CC2 [Example 1.126],< 5
16,CCc1cccc(CC)c1-n1nc2c(c1-c1ccc(C)c3[nH]ccc13)CN(c1ccc(C(C)C)cn1)CC2 [Example 1.127],< 5

row,SMILES,IC50 [nM]
1,CCc1cccc(CC)c1-n1nc2c(c1-c1c(F)cc(C)c3[nH]ccc13)CN(c1ccc(C(C)C)cn1)CC2 [Example 1.128],< 5
2,CCc1cccc(CC)c1-n1nc2c(c1-c1ccc(Cl)c3[nH]ccc13)CN(c1nccc(N)n1)CC2 [Example 1.129],50 to 500
3,CCc1cccc(CC)c1-n1nc2c(c1-c1c(F)cc(Cl)c3[nH]ccc13)CN(c1ncc(C(C)C)cn1)CC2 [Example 1.132],< 5
4,CCc1cccc(CC)c1-n1nc2c(c1-c1c(F)cc(Cl)c3[nH]ccc13)CN(c1ccc(C(F)(F)F)cn1)CC2 [Example 1.133],< 5
5,COc1cccc(C)c1-n1nc2c(c1-c1ccc3[nH]ccc3c1)CN(C(=O)OC(C)(C)C)CC2 [Example 1.134],50 to 500
6,CCc1cccc(CC)c1-n1nc2c(c1-c1ccc(Cl)c3[nH]ccc13)CN(c1ccc(C(C)C)cn1)CC2 [Example 1.135],< 5
7,CCc1cccc(CC)c1-n1nc2c(c1-c1ccc(Cl)c3[nH]ccc13)CN(c1nccc(C(F)(F)F)n1)CC2 [Example 1.138],< 5
8,CCc1cccc(CC)c1-n1nc2c(c1-c1c(F)cc(C)c3[nH]ccc13)CN(c1ncc(C(C)C)cn1)CC2 [Example 1.139],< 5
9,CCc1cccc(CC)c1-n1nc2c(c1-c1ccc(C)c3[nH]ccc13)CN(c1ncc(C(F)(F)F)cn1)CC2 [Example 1.140],< 5
10,CCc1cccc(CC)c1-n1nc2c(c1-c1ccc(C)c3[nH]ccc13)CN(c1ccc(C(F)(F)F)cn1)CC2 [Example 1.142],< 5
11,CCc1cccc(CC)c1-n1nc2c(c1-c1c(F)cc(C)c3[nH]ccc13)CN(c1ccc(C(F)(F)F)cn1)CC2 [Example 1.143],< 5
12,CCc1cccc(CC)c1-n1nc2c(c1-c1c(F)cc(Cl)c3[nH]ccc13)CN(c1ncc(C(F)(F)F)cc1F)CC2 [Example 1.144],< 5
13,CCc1cccc(CC)c1-n1nc2c(c1-c1ccc(Cl)c3[nH]ccc13)CN(c1nc(C)cc(C)n1)CC2 [Example 1.148],< 5
14,CCc1cccc(CC)c1-n1nc2c(c1-c1ccc(Cl)c3[nH]ccc13)CN(C(=O)Nc1ccccc1)CC2 [Example 1.149],5 to 50
15,CCc1cccc(CC)c1-n1nc2c(c1-c1c(F)cc(C)c3[nH]ccc13)CN(c1ncc(C(F)(F)F)cc1F)CC2 [Example 1.150],< 5
